Measurements taken from paper PMC10051705, “Leishmanicidal Activity of Guanidine Derivatives against Leishmania infantum” (Tropical Medicine and Infectious Disease, 2023).
Marks after values point to notes of the source that are not given here.

Assays:
[1] = system: L. infantum axenic amastigotes; assay: apoptosis/necrosis profiling, annexin V/PI staining, axenic amastigotes; type: cell-based, Leishmania infantum
Method: (§1) To evaluate both apoptosis and necrosis, promastigote forms of L. infantum in the log phase of growth were incubated at several concentrations based on the IC50 values of LQOFG-2 (6.35; 12.7, 25.4, and 50.8 µM) LQOFG-6 (12.2, 24.4, 48.8 and 97.6 µM), and LQOFG-7 (11.65, 23.3, 46.6 and 93.2 µM), and AmB (1.5 and 6 µM) was used as the positive control. The plates were incubated for 24 h at 26 °C ± 1 °C in a B.O.D. incubator. After incubation, the promastigotes were washed three times in cold PBS, resuspended in binding buffer (10-mM HEPES, 140-mM NaCl, and 2.5-mM CaCl2, pH 7.4), and stained using a FITC Annexin V/Dead Cell Apoptosis Kit (BD Biosciences, San Jose, CA, USA) according to the manufacturer’s instructions. The stained cells were diluted and suspended in an Annexin V binding buffer (BD Biosciences, San Jose, CA, USA). Annexin V-FITC/propidium iodide (PI)-stained cells were analyzed using a BD FACSCanto II flow cytometer (BD Biosciences, San Jose, CA, USA). The raw data were analyzed using FlowJo 10.0.7 software (TreeStar Inc., Ashland, OR, USA).
To evaluate both apoptosis and necrosis of the amastigote-like forms of L. infantum, the protocol was followed. In each well, amastigotes were treated with the guanidine compounds and controls.

[2] = system: L. infantum axenic amastigotes; assay: axenic amastigote inhibition assay (MTT); type: cell-based; conditions: Leishmania infantum, 24 h; for EC50: 37 °C, pH 5.5, MTT; for inhibition at 31.2 µM: read-out: inhibition of axenic amastigotes compared to the control (untreated)
[3] = system: human red blood cells; assay: red blood cell lysis assay; type: cell-based; conditions: 1 h, 37 °C
Method: The hemolytic activities of guanidine compounds were measured using human red blood cells from healthy adults (n = 3) according to methods previously described. Briefly, 80 µL of a 5% erythrocyte/phosphate-buffered saline (PBS) suspension was mixed with 20 µL of LQOFG-2, LQOFG-6, LQOFG-7, (1000 to 7.8 µM), and AmB (100 to 0.78 µM). After incubation at 37 °C for 1 h, 200 µL of PBS (1.5 mM KH2PO4, 8.1 mM Na2HPO4, 136.9 mM NaCl, and 2.6 mM KCl, pH 7.2) was added to stop the hemolysis process, and the samples were centrifuged for 10 min at 1000× g. The supernatants were collected, and the extent of hemolysis was measured spectrophotometrically at 540 nm. The hemolysis percentage was determined as [(Abssam − Abscon)/(Abstot − Abscon) × 100], where Abssam is the absorbance of the sample, Abscon is the absorbance of the blank control (without drugs), and Abstot is the absorbance of total hemolysis (replacing the sample solution with an equal volume of ultrapure water (Direct-Q UV®, Guyancourt, France)).

[4] = in vitro cytotoxicity in PBMC (MTT); type: cell-based, human; conditions: both sexes, human, peripheral blood mononuclear cells (PBMCs), human PBMC, 24 h, MTT
Method: (§2) In vitro cytotoxicity was evaluated using peripheral blood mononuclear cells (PBMCs) collected from three healthy volunteers (2 males, mean age 33; and 1 person). PBMCs were separated by density gradient using Ficoll Paque PLUS (GE Healthcare, USA), pelleted by centrifugation (400× g for 40 min), and resuspended in RPMI 1640 medium, then supplemented with 10% fetal bovine serum and 1% antibiotic solution (penicillin 5000 Units/mL + streptomycin 5000 μg/mL). After 24 h of treatment, cell viability was evaluated by the modified colorimetric method based on the tetrazolium dye MTT (3-(4,5-dimethylthiazol-2-yl)-2,5- diphenyltetrazolium bromide). The MTT assay was used for in vitro cytotoxicity as previously described with the following modifications: cells were exposed to serially diluted concentrations of LQOFG-2, LQOFG-6, LQOFG-7 (1000 to 7.8 µM), and AmB (100 to 0.78 µM). The plates were kept at 37 °C for 24 h. MTT (5 mg/mL) was added and incubated for 4 h at 37 °C, after which the plates were centrifuged, the supernatant was discarded, and DMSO was added, leaving the plates under stirring to solubilize the formazan salts. Absorbance was measured at 540 nm using a plate reader (ELx800; Curitiba, PR, Brazil). The mean percentage of viable cells was calculated relative to the untreated control.

[5] = system: peripheral blood mononuclear cells (PBMCs); assay: in vitro cytotoxicity in PBMC (MTT); type: cell-based, human; conditions: CC50 PBMC / EC50 axenic amastigotes
Method: as §2

[6] = system: L. infantum promastigotes; assay: apoptosis/necrosis profiling, annexin V/PI staining, promastigotes; type: cell-based, Leishmania infantum
Method: as §1

[7] = system: L. infantum promastigotes; assay: promastigote growth inhibition assay (MTT); type: cell-based; conditions: Leishmania infantum, 72 h, 26 °C
Method: The promastigote forms of Leishmania (Leishmania) infantum [IOC/L0579(MHOM/BR/1974/PP75)] were cultured in Schneider’s medium, pH 7.0, supplemented with 20% heat-inactivated fetal bovine serum (FBS), 2% male human urine, 100 U/mL of penicillin, and 100 mg/L of streptomycin, and the parasites were maintained at 26 °C. The procedure to obtain the extracellular axenic amastigote form of L. infantum was based on methods previously described that were modified using a Schneider medium readjusted to pH 5.5 at 37 °C. The culture of promastigote forms in the stationary phase was centrifuged, and the medium of these cells was replaced and differentiated into axenic amastigotes by temperature and medium pH changes. Parasites were maintained in culture for no more than 20 passages.
The promastigote growth inhibition assay was performed as previously described. Promastigotes were harvested during the exponential growth phase. They were incubated in the presence and absence of several concentrations of LQOFG-2, LQOFG-6, LQOFG-7 (500 to 7.8 µM), and AmB (10 to 0.078 µM) as the positive control. The plate was incubated at 26 °C for 72 h in a biological oxygen demand (B.O.D.) incubator using a Schneider’s medium (Schneider’s Insect Medium 24.5 g/L; L-glutamine 1.8 g/L; glucose 2 g/L and sodium bicarbonate 0.4 g/L; Sigma-Aldrich—St. Louis—USA) supplemented. The growth inhibition was evaluated using an MTT assay kit (Amresco, Solon, OH, USA) according to the manufacturer’s protocol. After 4 h of incubation, 10% sodium dodecyl sulfate was added to dissolve the formazan crystals. The absorbance (540 nm) was measured using a plate reader (Biosystems model ELx800; Curitiba, PR, Brazil). […] Three independent experiments we performed in triplicate.

EC50 [2] | Compound | % cells, Early Apoptosis (AV+, PI−) ([1]; 0.5 × EC50, 24 h) | % cells, Late Apoptosis (AV+, PI+) ([1]; 0.5 × EC50, 24 h) | % cells, Early Apoptosis (AV+, PI−) ([1]; 1 × EC50, 24 h) | % cells, Late Apoptosis (AV+, PI+) ([1]; 1 × EC50, 24 h) | % cells, Necrosis (AV−, PI+) ([1]; 1 × EC50, 24 h) | % cells, Early Apoptosis (AV+, PI−) ([1]; 2 × EC50, 24 h) | % cells, Late Apoptosis (AV+, PI+) ([1]; 2 × EC50, 24 h) | % cells, Necrosis (AV−, PI+) ([1]; 2 × EC50, 24 h) | % cells, Early Apoptosis (AV+, PI−) ([1]; 4 × EC50, 24 h) | % cells, Late Apoptosis (AV+, PI+) ([1]; 4 × EC50, 24 h) | % cells, Necrosis (AV−, PI+) ([1]; 4 × EC50, 24 h) | inhibition at 31.2 µM [2] | HC50, toxicity to red blood cells [3] | CC50 at 24 h [4] | SI (CC50/EC50) [5] | % cells, Early Apoptosis (AV+, PI−) ([6]; 0.5× IC50, 24 h) | % cells, Late Apoptosis (AV+, PI+) ([6]; 0.5× IC50, 24 h) | % cells, Necrosis (AV−, PI+) ([6]; 0.5× IC50, 24 h) | % cells, Early Apoptosis (AV+, PI−) ([6]; 1× IC50, 24 h) | further results
26.1 ± 1.22 µM | O=C(/N=C(/NCc1ccccc1)Nc1ccc(Br)cc1)c1ccccc1 [LQOFG-2, (Z)-N-((benzylamine)((4-bromophenyl)amino)methylene)benzamide] | 5.68 ± 0.29 ^a % | 31.43 ± 0.03 ^b % | 8.13 ± 0.84 ^d % | 33.23 ± 0.73 ^c % | 11.97 ± 0.66% | 7.68 ± 0.39 ^d % | 56.27 ± 1.51 ^d % | 15.93 ± 1.02% | 7.55 ± 1.18 ^d % | 67.50 ± 2.05 ^d % | 13.80 ± 1.47% | 57.7% | >1000 µM | 313 ± 3.23 µM | 12.00 | 0.27± 0.09% | 0.55 ± 0.04% | 1.69 ± 0.28% | 0.12 ± 0.02% | % cells, Necrosis (AV−, PI+) ([1]; 0.5 × EC50, 24 h): 13.20 ± 1.62%; % cells, Late Apoptosis (AV+, PI+) ([6]; 1× IC50, 24 h): 0.41 ± 0.14%; % cells, Necrosis (AV−, PI+) ([6]; 1× IC50, 24 h): 2.07 ± 0.23%; % cells, Early Apoptosis (AV+, PI−) ([6]; 2× IC50, 24 h): 0.35 ± 0.01%; % cells, Late Apoptosis (AV+, PI+) ([6]; 2× IC50, 24 h): 0.78 ± 0.15%; % cells, Necrosis (AV−, PI+) ([6]; 2× IC50, 24 h): 1.52 ± 0.24%; % cells, Early Apoptosis (AV+, PI−) ([6]; 4× IC50, 24 h): 0.34 ± 0.09%; % cells, Late Apoptosis (AV+, PI+) ([6]; 4× IC50, 24 h): 0.63 ± 0.12%; % cells, Necrosis (AV−, PI+) ([6]; 4× IC50, 24 h): 1.79 ± 0.59%; IC50 [7]: 12.7 ± 0.25 µM
21.1 ± 1.13 µM | CC(C)(C)c1ccc(N/C(=N\C(=O)c2ccccc2)NCc2ccccc2)cc1 [LQOFG-6, (Z)-N-((benzylamine)((4-(tert-butyl)phenyl)amino)methylene)benzamide] | 3.62 ± 0.39% | 17.10 ± 0.80% | 4.05 ± 0.22% | 20.00 ± 1.74% | 6.57 ± 1.20% | 5.72 ± 0.20 ^a % | 25.50 ± 0.80% | 7.15 ± 0.21% | 9.06 ± 0.70 ^d % | 45.47 ± 1.30 ^d % | 8.14 ± 0.78% | 59.9% | >1000 µM | > 1000 µM | >47.4 | 0.65 ± 0.19% | 0.18 ± 0.01% | 0.85 ± 0.09% | 0.46 ± 0.13% | % cells, Late Apoptosis (AV+, PI+) ([6]; 1× IC50, 24 h): 0.20 ± 0.03%; % cells, Necrosis (AV−, PI+) ([6]; 1× IC50, 24 h): 1.47 ± 0.21%; % cells, Early Apoptosis (AV+, PI−) ([6]; 2× IC50, 24 h): 0.51 ± 0.08%; % cells, Late Apoptosis (AV+, PI+) ([6]; 2× IC50, 24 h): 0.32 ± 0.06%; % cells, Early Apoptosis (AV+, PI−) ([6]; 4× IC50, 24 h): 0.91 ± 0.34%; % cells, Late Apoptosis (AV+, PI+) ([6]; 4× IC50, 24 h): 0.20 ± 0.03%; IC50 [7]: 24.4 ± 0.76 µM
